What was measured:
[1] = Feed stability: optimum ratio of compound of formula I to β-cyclodextrin; assay type: physicochemical; conditions: feed mixtures, ratio to β-cyclodextrin varied
Procedure: (§1) As model feed a ready feed for piglets of the following composition is used:
Various forms of the preparation are mixed with the ready feed in a concentration of 200 ppm of compound of formula I and stored for several weeks at 30°. […]
For determination of the optimum ratio of compound of formula I to cyclodextrin, investigations are carried out using various concentrations of cyclodextrin. Results as regards stability in feed mixtures are summarized in Table 2 [in the first column "ratio" means the ratio of compound of formula I (hydrochloride) to β-cyclodextrin]: […]

[2] = Feed stability: storage in ready piglet feed, content by HPLC; assay type: physicochemical; conditions: feed mixture, 200 ppm, 30°
Procedure: as §1
Various forms of the preparation are mixed with the ready feed in a concentration of 200 ppm of compound of formula I and stored for several weeks at 30°. Both the starting value of the fresh mixtures and the content values after storage for 2, 4 and 8 weeks are analysed by high pressure liquid chromatography (HPLC).

[3] = Oral absorption in pigs, plasma concentration by microbiological analysis; assay type: in vivo; conditions: pig, 25 mg/kg body weight, pure compound in drinking water
Procedure: (§2) Absorption following administration to rats and pigs of 25 mg/kg body weight of a preparation according to Example 3 is tested and compared with pure compound of formula I (hydrochloride) in the drinking water. Blood samples are taken after a period of 24 hours and the concentration of active substance in plasma determined by microbiological analysis. The results in Table 3 show the absorption of the compound of formula I when administered in the form of a complex of the invention: […]

[4] = Oral absorption in rats, plasma concentration by microbiological analysis; assay type: in vivo; conditions: rat, 25 mg/kg body weight, pure compound in drinking water
Procedure: as §2

[5] = Phase-solubility diagram (inclusion compound type, complex binding constant) with β-cyclodextrin; assay type: physicochemical; conditions: compound of formula I in the form of the base; with cyclodextrin (printed without Greek letter)
Description: (§3) Based on the phase-solubility diagram (see "Methods of investigating and preparing inclusion compounds and their industrial uses" in D. Duchene, "Cyclodextrins and their Industrial Uses", Editions de Sante [1987]), the following types of inclusion compounds are obtained with the compound of formula I in the form of the base and […]

[6] = tested on: gram-positive and gram-negative bacteria; conditions: many gram-positive and gram-negative bacteria; free base, acid addition or quaternary salt form; cited from earlier work
[7] = Stability in conventional complete feed mixtures (general statement); assay type: physicochemical
[8] = Phase-solubility diagram (inclusion compound type, complex binding constant) with γ-cyclodextrin; assay type: physicochemical; conditions: compound of formula I in the form of the base
Description: as §3

[9] = read-out: AUC (area under curve)
[10] = read-out: Cmax (maximum plasma concentration)

Structure (SMILES): C=C[C@]1(C)C[C@@H](OC(=O)CSC(C)(C)CNC(=O)[C@H](N)C(C)C)[C@]2(C)[C@H](C)CC[C@]3(CCC(=O)[C@H]32)[C@@H](C)[C@@H]1O [14-O-[1-((D)-2-amino-3-methylbutyrylamino)-2-methylpropan-2-ylthioacetyl]mutilin]
- Content after 1 month ([1]; after 1 month, 43800 min): 9%
- Content after 2 months ([1]; after 2 months, 87600 min): 9%
- Content after 3 months ([1]; after 3 months, 131400 min): 7%
- Content, initial value ([1]; initial value): 100%
- Content after 2 weeks ([2]; after 2 weeks, 20160 min): 15%
- Content after 4 weeks ([2]; after 4 weeks, 40320 min): 8%
- Content after 8 weeks ([2]; after 8 weeks, 80640 min): 6%
- Content, initial value ([2]; initial value): 100%
- AUC [3, 9]: 21.4 µg·h/mL
- Cmax [3, 10]: 1.2 µg/mL
- AUC [4, 9]: 139 µg·h/mL
- Cmax [4, 10]: 8.6 µg/mL

Structure (SMILES): C=C[C@]1(C)C[C@@H](OC(=O)CSC(C)(C)CNC(=O)[C@H](N)C(C)C)[C@]2(C)[C@H](C)CC[C@]3(CCC(=O)[C@H]32)[C@@H](C)[C@@H]1O [compound of formula I, 14-O-[1-((D)-2-amino-3-methylbutyrylamino)-2-methylpropan-2-ylthioacetyl]mutilin]
- type of inclusion compound (phase-solubility diagram) [5]: type AL
- antibacterial effectiveness [6]: highly effective
- breakdown by constituents of conventional complete feed mixtures [7]: broken down very rapidly
- type of inclusion compound (phase-solubility diagram) [8]: type BS
